Where two headings read alike, the source gives them in different places.
Experiments:
[1] = system: Enterococcus faecium (n = 104); assay: microbe, parasite or virus in culture; settings: Enterococcus faecium (n = 104)
Method: Comparator antibiotics were supplied by Micromyx, and stock solutions were prepared on the first day of testing using solvents recommended by CLSI (1). Stock solutions of all compounds were made at 40× the final testing concentration and stored at −80° C. prior to testing. Information regarding compound source, catalog and lot number, testing concentrations and drug diluent for the comparators and test agent are detailed below in Table 3.
The test organisms evaluated in this study consisted of clinical isolates from the Micromyx Repository and reference isolates from the American Type Culture Collection (ATCC; Manassas, Va.). The clinical isolates were obtained from USA hospitals. Upon initial receipt at Micromyx, the organisms were sub-cultured onto an appropriate agar medium. Following incubation, colonies were harvested from these plates and cell suspensions prepared and frozen at −80° C. with a cryoprotectant. Prior to testing, the isolates were streaked from frozen vials onto Trypticase Soy Agar with 5% sheep blood (Becton Dickenson [BD]; Sparks, MD; Lot Nos. 7173618, 7166759, 7208688, 72144895, 7228505 and Remel Lenexa, Kans. Lot No. 212574). Plates were incubated at 35° C. overnight.
Mueller Hinton II broth (MHB II; BD; Lot Nos. 6258541 and 7143896) was used for MIC testing of aerobic organisms.
MIC values were determined using a broth microdilution procedure described by CLSI (1, 3). Automated liquid handlers (Multidrop 384, Labsystems, Helsinki, Finland; Biomek 2000 and Biomek FX, Beckman Coulter, Fullerton Calif.) were used to conduct serial dilutions and liquid transfers.
To prepare the drug mother plates, which would provide the serial drug dilutions for the replicate daughter plates, the wells of columns 2-12 of standard 96-well microdilution plates (Costar 3795) were filled with 150 µl of the designated diluent for each row of drug. The test articles and comparator compounds ([…] at 40× the highest concentration to be tested) were dispensed into the appropriate wells in column 1. The Biomek 2000 was then used to make 2-fold serial dilutions in the mother plates from column 1 through column 11. The wells of Column 12 contained no drug and served as the organism growth control wells for the assay.
The daughter plates were loaded with […] per well of MHB II using the Multidrop 384. The daughter plates were completed on the Biomek FX instrument which transferred 5 µL of drug solution from each well of a mother plate to the corresponding well of each daughter plate in a single step. A standardized inoculum of each test organism was prepared per CLSI methods (1). The inoculum for each organism was dispensed into sterile reservoirs divided by length (Beckman Coulter), and the Biomek 2000 was used to inoculate the plates. Daughter plates were placed on the Biomek 2000 work surface in reverse orientation so that inoculation took place from low to high drug concentration.
Plates were stacked 3-4 high, covered with a lid on the top plate, placed in plastic bags, and incubated at 35° C. for 16 to 20 hrs. Following incubation, the microplates were removed from the incubator and viewed from the bottom using a plate viewer. […] The MIC was read and recorded as the lowest concentration of drug that inhibited visible growth of the organism.
Clinical breakpoints to determine percent resistance within a given organism group were obtained from CLSI (3), with the exception of colistin for K. pneumoniae, Enterobacter spp., and E. coli, which are only available from EUCAST.

[2] = system: Staphylococcus aureus (n = 104); assay: microbe, parasite or virus in culture; assay type: cell-based; settings: Staphylococcus aureus (n = 104)
Method: (§1) The clinical isolates were obtained from USA hospitals. […] Plates were incubated at 35° C. overnight.

[3] = system: Enterobacter spp. (n = 102); assay type: cell-based, Enterobacter aerogenes and E. cloacae; settings: Enterobacter spp. (n = 102)
Method: as §1

[4] = system: Escherichia coli (n = 101); assay type: cell-based; settings: Escherichia coli (n = 101), CLSI breakpoints, colistin EUCAST
Method: as §1

[5] = system: Acinetobacter spp. (n = 104); assay type: cell-based; settings: Acinetobacter spp. (n = 104), CLSI breakpoints
Method: as §1

[6] = system: Klebsiella pneumoniae (n = 101); assay type: cell-based
Method: as §1

[7] = system: Pseudomonas aeruginosa (n = 109); assay type: cell-based; settings: Pseudomonas aeruginosa (n = 109), CLSI breakpoints
Method: as §1

MIC range [3] [µg/mL]	Compound	MIC range [1] [µg/mL]	% R (isolates resistant) ([1]; CLSI breakpoints) [%]	MIC range ([1]; listed as linezolid) [µg/mL]	% R (isolates resistant) ([2]; CLSI breakpoints) [%]	MIC range ([2]; all methicillin-resistant) [µg/mL]	% R (isolates resistant) ([3]; CLSI breakpoints, colistin EUCAST) [%]	% R (isolates resistant) [4] [%]	% R (isolates resistant) [5] [%]	% R (isolates resistant) [6]	% R (isolates resistant) ([6]; Klebsiella pneumoniae (n = 101), CLSI breakpoints, colistin EUCAST) [%]	% R (isolates resistant) [7] [%]
	CC(=O)NC[C@H]1CN(c2ccc(N3CCOCC3)c(F)c2)C(=O)O1 [Linezolid]	1 to 32	3.8	1 to 32	1.9	1 to 8						
0.12 to 64	NC[C@H]1O[C@H](O[C@H]2[C@H](O)[C@@H](O[C@H]3O[C@H](CO)[C@@H](O)[C@H](N)[C@H]3O)[C@H](N)C[C@@H]2N)[C@H](N)C[C@@H]1O [Tobramycin]						3.9	21.7	49.0	over 60%	59.4	7.4

— patent US20220249599A1, “TREATMENT OF IMPLANTS WITH ENGINEERED ANTIMICROBIAL AMPHIPHILIC PEPTIDES” (priority 2018, published 2022)
